The source of these data is patent publication US20190308987A1, “DUAL MODULATORS OF BOTH MU AND KAPPA OPIOID RECEPTORS” (priority 2016, published 2019).

In assay [1] the test system is guinea pig ileum Longitudinal Muscle Myenteric Plexus (LMMP). In words: Electrical field stimulated contractions in LMMP strips. Here is the method:
Male albino guinea pigs (350-450 g) were euthanized by asphyxiation with CO2. A segment of ileum was removed and placed in a dissection bath filled with pre-oxygenated Krebs' solution (118 mM NaCl, 4.6 mM KCl, 1.3 mM NaH2PO4, 1.2 mM MgSO4, 25 mM NaHCO3, 11 mM glucose, and 2.5 mM CaCl2). Longitudinal Muscle Myenteric Plexus (LMMP) strips were prepared as previously described.^26 Electrical field stimulation (EFS) (50 V, 7.5 Hz, unless stated otherwise) was applied through concentric electrodes over longitudinal muscle or L-type stimulating electrodes over circular muscle strips to produce neurogenic contractions/relaxations. Drugs were added in single or cumulative doses depending on the assay to determine their inhibitory effects on the neurogenic responses.

The test system of assay [2] is mouse distal colon circular muscle. The assay is described as follows: Colon circular muscle isometric tension recordings, distal colon. As to the method: (§1) Mice were euthanized by cervical dislocation. The colon was dissected, flushed of its contents, and trimmed of mesentery. […] The tissues, 0.5 cm in length, were suspended vertically along the axis of the circular muscle with a metal triangle tied to a hook under 1 g of passive tension in 15 mL siliconized organ baths.
(§2) Data are presented as the mean±S.E.M, values of P≤0.05 were considered significant.

Assay [3] concerns mouse proximal colon circular muscle. In words: Colon circular muscle isometric tension recordings, proximal colon. As to the method: as §1, §2
The next assay deals with T1, KOR (Homo sapiens, UniProt P41145).
T1 construct: expressed in transfected cells; host or cells: CHO cells (membranes)
T1 sequence (P41145 whole entry): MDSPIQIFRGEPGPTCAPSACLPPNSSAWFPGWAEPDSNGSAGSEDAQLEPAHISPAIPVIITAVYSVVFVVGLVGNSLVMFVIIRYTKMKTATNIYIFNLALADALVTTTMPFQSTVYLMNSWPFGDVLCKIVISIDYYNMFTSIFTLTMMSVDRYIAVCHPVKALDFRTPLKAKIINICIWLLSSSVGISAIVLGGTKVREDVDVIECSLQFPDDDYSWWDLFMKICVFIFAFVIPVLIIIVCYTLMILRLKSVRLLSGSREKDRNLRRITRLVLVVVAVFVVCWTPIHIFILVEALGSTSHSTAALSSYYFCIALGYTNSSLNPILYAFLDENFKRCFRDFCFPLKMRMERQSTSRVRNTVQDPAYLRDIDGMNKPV
The following applies: NAP data from ref 9b, cited from earlier work.

The target in a further assay is MOR (Mus musculus, UniProt P42866). The settings on record: relative to DAMGO, NAP data from ref 9b; cited from earlier work.
Sequence of MOR (P42866 whole entry): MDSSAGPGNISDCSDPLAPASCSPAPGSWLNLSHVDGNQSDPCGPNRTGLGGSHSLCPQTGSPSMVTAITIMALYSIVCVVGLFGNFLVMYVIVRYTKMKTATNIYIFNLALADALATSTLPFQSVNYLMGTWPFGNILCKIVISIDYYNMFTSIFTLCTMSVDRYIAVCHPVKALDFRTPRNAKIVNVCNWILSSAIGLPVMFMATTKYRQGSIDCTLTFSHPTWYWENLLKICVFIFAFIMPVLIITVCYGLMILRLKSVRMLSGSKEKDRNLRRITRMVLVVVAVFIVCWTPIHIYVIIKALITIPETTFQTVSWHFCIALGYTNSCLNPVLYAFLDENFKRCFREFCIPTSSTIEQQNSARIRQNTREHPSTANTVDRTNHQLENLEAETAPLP
A further assay deals with morphine antinociception. In words: Warm water tail immersion (tail flick) test. It counts as in vivo, Swiss Webster mice. The settings on record: morphine alone, warm water tail flick. Here is the method: Male Swiss Webster mice (Harlan Laboratories, Indianapolis, Ind.) weighing 25-30 g were housed 5 to a cage in animal care quarters and maintained at […] on a 12 h light-dark cycle. Food and water were available ad libitum. The mice were brought to a test room (22±2° C., 12 h light-dark cycle), marked for identification and allowed 18 h to recover from transport and handling. Protocols and procedures were approved by the Institutional Animal Care and Use Committee (IACUC) at Virginia Commonwealth University Medical Center and comply with the recommendations of the IASP (International Association for the Study of Pain).
The warm water tail-immersion test was performed according to previously described methods using a water bath with the temperature maintained at 56±0.1° C.^20 Briefly, before giving the mice injections, a baseline (control) latency was determined. Only mice with a control reaction time of 2 to 4 s were used. The average baseline latency for these experiments was 3.0±0.1 s. The test latency after drug treatment was assessed at the appropriate time, and a 10 s maximal cutoff time was imposed to prevent tissue damage. Antinociception was quantified according to established procedures as the percentage of maximum possible effect (% MPE), which was calculated as follows: % MPE=[(test latency−control latency)/(10−control latency)]×100.^21 Percentage MPE was calculated for each mouse, using at least six mice per group.
Intracerebroventricular (ICV) injections were performed as described previously.^22 Mice were anesthetized with 2.5% isoflurane and a horizontal incision was made in the scalp. A needle was inserted to a depth of 3 mm into the lateral ventrical (2 mm rostral and 2 mm lateral at a 45° angle from the bregma). At intervals, 5 μL injections of drug or vehicle were made using this guide insertion to the same depth using a needle with a guard in nonanesthetized animals.^22, 23 Animals underwent the anesthetized surgery in the morning of the experiment and were then injected with drug at intervals indicated in the text without additional anesthesia. Immediately after testing, the animals were euthanized to minimize any type of distress, according to IACUC guidelines.

For assay [4], the system named is colonic motility. The assay is described as follows: Colonic bead expulsion assay. It counts as in vivo, mice. The following applies: morphine 3 mg/kg; naive mice 17 min. As to the method: Mice were habituated and fasted as described above for the gastrointestinal transit analysis. […] At 20 min post-injection, animals were anesthetized with isoflurane (1-2 min) to insert a single 2-mm glass bead into the distal colon at a distance of 3 cm from the anus. Bead insertion was accomplished using a glass rod with a fire-polished end to avoid tissue damage and marked at 3 cm.^25 After bead insertion, mice were placed in individual cages and the time to bead expulsion was monitored. Animals were monitored for a maximum of 2 h unless bead expulsion occurred sooner.

The test system of another assay is intestinal transit. In words: Charcoal meal test for gastrointestinal transit. The class given is in vivo, mice. The settings on record: charcoal gavage, compound alone. Here is the method:
Forty-eight hours before testing, mice were placed in cages with raised mesh wire to suspend them above their bedding and prevent ingestion of feces or bedding. The animals were habituated for 24 h in the presence of food and water and then fasted for 24 h with free access to water as previously reported.^24 This time frame was chosen to deplete the intestine and colon of any feces. To maintain caloric intake and to avoid hypoglycemia, mice had access to a sugar water solution consisting of a final concentration of 5% dextrose for the first 8 h of the fasting period. […] At 30 min after the administration of the charcoal meal, the mice were euthanized by cervical dislocation, and the small intestine from the jejunum to the cecum was dissected and placed in cold saline to stop peristalsis. The distance traveled by the leading edge of the charcoal meal was measured relative to the total length of the small intestine, and the percentage of intestinal transit for each animal was calculated as percentage transit (charcoal distance)/(small intestinal length)×100. This is referred to as intestinal transit in the text.

Assay [5] has as its system colonic motility. The following applies: rodent models; cited from earlier work.
For a further assay, the system named is GI transit. The following applies: humans; cited from earlier work.

Values joined by “and” are separate entries in the source; they are usually repeats but may differ in a detail not shown here. Equal entries are not always repeated. “Also recorded” adds a separate entry of the source.

Take `C[C@@H](NC(=O)[C@@H](N)Cc1ccc(O)cc1)C(=O)NCC(=O)N(C)[C@@H](Cc1ccccc1)C(=O)NCCO` [DAMGO, reference compound]: the “pIC50 for inhibition of EFS contractions” value in assay [1] (guinea pig ileum LMMP) amounted to 7.67±0.03. Moreover, in assay [1] (nor-BNI 0.1 μM, 15 min pretreatment), the “effect of nor-BNI on agonist inhibition of EFS contractions” value is on record as “did not significantly effect DAMGO inhibition of EFS contractions”.
By EC50 is commonly meant the concentration giving half of the maximal effect. `O=C(NC1CCC2(O)C3Cc4ccc(O)c5c4C2(CCN3CC2CC2)C1O5)c1ccncc1` (stereo not drawn) [NAP, 17-Cyclopropylmethyl-3, 14beta-dihydroxy-4,5alpha-epoxy-6beta-(4′-pyridylcarboxamido)morphinan, reference compound]: the “inhibition of morphine-induced contractions” value is “neither NAP nor BNAP showed significant inhibition of morphine-induced contractions” in assay [2] (1 nM antagonist, distal colon) and “neither NAP nor BNAP showed significant inhibition of morphine-induced contractions” in assay [3] (1 nM antagonist, proximal colon). The “antagonism of morphine effects” value in assay [2] (10 nM antagonist, distal colon) is given as “neither NAP nor BNAP showed significant antagonism of morphine effects”. The “morphine pD2 in presence of antagonist” value in [2] (100 nM antagonist, distal colon (naive 6.0)) was 5.3; in assay [3] (10 nM antagonist, proximal colon (naive 6.8)) it was 5.9. Also, the “contractions induced by compound alone” value is listed as “Neither BNAP nor NAP alone at concentrations up to 30 μM induced contractions” in assay [2] (up to 30 μM, distal colon preparation) and “Neither BNAP nor NAP alone at concentrations up to 30 μM induced contractions” in assay [3] (up to 30 μM, proximal colon preparation). The “further reduction of morphine pD2” value in [3] (100 nM versus 10 nM antagonist, proximal colon) is listed as “no further reduction of the morphine pD2”. Also, the EC50 on KOR (35S-GTP[γS]) is 28.8 ± 14.4 nM. In addition, the “% max of agonist” value on KOR (relative to U50,488H) was 45.5±4.4%; at MOR, 22.72±0.84% and 22.7 ± 0.8%.
Turning to `CN1CC[C@]23c4c5ccc(O)c4O[C@H]2[C@@H](O)C=C[C@H]3[C@H]1C5` [morphine, reference compound], the antinociception result in the assay with morphine antinociception is “dose dependently induced antinociception”. This molecule had a bead expulsion time in the assay with colonic motility [4] of 75 min. In addition, the “reduction of intestinal motility” value in the assay on intestinal transit turned out to be 3 fold.
Consider `COC(=O)[C@@H]1C[C@H](OC(C)=O)C(=O)[C@H]2[C@@]1(C)CC[C@H]1C(=O)O[C@H](c3ccoc3)C[C@]21C` [Salvinorin A], for which the “effect on colonic / GI motility” value in the assay with colonic motility [5] is “reduced colonic motility; also recorded: can reduce GI motility”.
Consider `CN(C(=O)C(c1ccccc1)c1ccccc1)[C@H](CN1CC[C@H](O)C1)c1ccccc1` [Asimadoline], for which the “effect on GI transit” value with GI transit was “did not alter GI transit”.
